# Experimental data taken from patent publication US6667387B1, “HCV core peptides” (priority 1992, dated 2003).
# Ends that are not written are not given here. * marks the point of attachment. Biotin = O=C1N[C@H]2[C@H](CS[C@H]2CCCCC(=O)*)N1
# Tests used:
# Type in all cases: binding, human
# [1] = test system: antibodies in antisera from HIV-1 infected persons; test: ELISA with HIV-1 antibody-positive sera (biotinylated peptides on streptavidin- or avidin-coated plates, unbiotinylated peptides coated directly)
# Procedure: (§1) Where peptides were to be coated directly, stock solutions of the peptides were diluted in sodium carbonate buffer, pH 9.6 and used to coat polystyrene microtiter plates at a peptide concentration of 2 to 5 micrograms per milliliter for 1 hour at 37° C.
# (§2) In cases where biotinylated peptides were to be evaluated, plates were first coated with streptavidin in sodium carbonate buffer, pH 9.6 at a concentration of 3 micrograms per milliliter for 1 hour at 37° C. The plates were then washed to remove excess, unbound protein. A working solution of the biotinylated peptide at 1 microgram per milliliter in sodium carbonate buffer was then added to the wells of the microtiter plate and incubated for 1 hours at 37° C.
# (§3) Once the plates had been coated with antigen, any remaining free binding sites on the plastic were blocked with casein. After washing, a dilution of the appropriate antisera, usually 1:100, was added to the wells of the plates and incubated for 1 hour at 37° C.
# (§4) After washing to remove unbound material, specific antibody binding was detected by incubating the plates with goat anti-human immunoglobulin antibodies conjugated to the enzyme horseradish peroxidase. Following removal of unbound conjugate by washing, a solution containing H2O2 and 3,3′,5,5′-tetramethylbenzidine was added.
# (§5) Reactions were stopped after a suitable interval by addition of sulfuric acid. […] Absorbance measurements were made at a wavelength of 450 nanometers and all data are expressed as an optical density value at this wavelength.
# Experiments were performed to evaluate antibody recognition of short, 10 amino acid-long, N-acetylated peptides corresponding to other contained within the transmembrane proteins of HIV-1 and HIV-2. […] The peptides used for the comparison were as follows:
# Antibody binding to these peptides was compared to antibody binding to the unibiotinylated peptides which were coated directly onto microtiter plates.
# In order to evaluate antibody recognition of these two peptides, the peptides were bound individually to streptavidin-coated microtiter plates and tested using a panel of antisera from HIV-1 seropositive donors.
# (§6) To determine how well biotinylated peptides would function in a mixture when bound to streptavidin- or avidin-coated plates, two mixtures were made of the N-terminally biotinylated versions of the HIV-1 peptides TM-HIV-1 (hereabove referred to as 1a.1) and V3-nm (hereabove referred to as 1b.4), the HIV-2 peptide TM-HIV-2 (hereabove referred to as 2a), and the hepatitis C virus peptides II, IX, and XVIII. Mixture A contained each of the six biotinylated peptides at a concentration of 1 microgram per milliliter (6 micrograms per milliliter peptide, total) while in mixture B, each peptide was present at a concentration of 0.1 microgram per milliliter (0.6 microgram per milliliter peptide, total). The individual peptides were coated at a concentration of 1 microgram per milliliter. For purposes of comparison, mixtures A and B were also coated directly onto the wells of a microtiter plate. Samples from HIV-1, HIV-2, and HCV-seropositive donors were tested and compared to sera from seronegative blood donors. A cut-off absorbance value of 0.250 was used to determine whether a reaction was positive or negative. Absorbance values equal or greater than 0.250 were considered positive while absorbance values below this value were considered negative.
# A spacer consisting of two glycine residues was added to the amino terminus.
# [2] = test system: antibodies in antisera from HIV-2 infected persons; test: ELISA with HIV-2 antibody-positive sera (biotinylated peptides on streptavidin- or avidin-coated plates, unbiotinylated peptides coated directly)
# Procedure: as §1, §2, §3, §4, §5
# The biotinylated peptides were loaded onto microtiter plates which had been coated with streptavidin. Antibody binding to these peptides was compared to antibody binding to the unibiotinylated peptides which were coated directly onto microtiter plates. It is evident that the biotinylated peptides from the HIV-1 or HIV-2 transmembrane proteins bound to streptavidin are recognized very well by antisera from HIV-1 or HIV-2 infected persons respectively. This is in contrast to the unbiotinylated versions of these peptides coated directly onto the polystyrene plates.
# as §6
# Two glycine residues were added at the N-terminus of each peptide to serve as a spacer and a biotin was coupled to the α-amino group of the resulting N-terminal glycine. The peptides were bound to streptavidin and coated in the wells of microwell plates. HIV-2 antibody-positive sera were used to evaluate these two peptides in an ELISA.
# [3] = test system: antibodies in sera from HCV-seropositive donors; test: ELISA with HCV antibody-positive sera (biotinylated peptides on streptavidin- or avidin-coated plates, unbiotinylated peptides coated directly); conditions: Table 8, Avidin
# In short: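 Read-out is OD at 450 nm after HRP goat anti-human Ig and TMB development, following 1 h at 37° C. with seropositive or negative sera diluted 1:100 (or 20-fold). Antigen was either unbiotinylated peptide adsorbed on plastic (pH 9.6 carbonate, 2–5 or 3 μg/ml) or biotinylated peptide at 1 μg/ml captured on streptavidin-coated wells, with casein blocking.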
# [4] = ELISA with seronegative / negative control sera (specificity)
# In short: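 Specificity readout is OD at 450 nm (HRP goat anti-human Ig, TMB/H2O2, sulfuric acid stop), with ≥0.250 counted positive. Seronegative donor sera (typically 1:100, 1 h, 37° C) were applied to casein-blocked wells coated with peptide directly or via streptavidin capture of biotinylated peptide.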
# [5] = test system: antibodies to HTLV-I and HTLV-II (serum panel PRP203); test: Line immunoassay (LIA) with biotinylated HTLV-I and HTLV-II peptides; conditions: sample nr. 12 of panel PRP203
# Source text: A number of these peptides were used to prepare LIA strips for the detection of antibodies of HTLV. Several of the peptides, such as I-p19 and I-gp46-4, which are derived from regions of the HTLV-I p19 gag protein and envelope glycoprotein, respectively, are expected to be recognized by antibodies produced as a result of both HTLV-I and HTLV-II infection since these sequences are highly homologous in the two viruses. Others, such as I-gp46-3, I-gp46-6 for HTLV-I, and II-gp52-1, II-gp52-2 and II-gp52-3 for HTLV-II may be useful for detection of antibodies as well as discrimination. Since there is some homology between the HTLV-I and HTLV-II sequences, cross-reactions are to be expected. Nevertheless, the intensities of the reactions to the various peptides should reveal the identity of the virus to which the antibodies were produced.
# The LIA strips were evaluated using a commercially available serum panel (Boston Biomedia Inc., mixed titer panel, PRP203). The test results are in complete agreement with the analysis provided by distributor. […] This sample could not be differentiated using these peptides, nor could this sample be differentiated by any other test used by the distributor of the serum panel. Sample nr. […] In an additional experiment, an ELISA was performed using all 10 of the biotinylated HTLV-I and HTLV-II peptides. […]
substance,measurement,setting,value
Bio-Gly-Gly-Gly-Ser-Trp-Gly-Cys-Ala-Phe-Arg-Gln-Val-Cys-NH2 (Biotin-GGGSWGCAFRQVC-NH2; cysteine pairing not given here) [TM-HIV-2 Bio],optical density (450 nm),"[1]; Table 1, serum 0724, HIV-1 positive",0.000
same,optical density (450 nm),"[1]; Table 1, serum PL, HIV-1 positive",0.000
same,optical density (450 nm),"[1]; Table 1, serum VE, HIV-1 positive",0.000
same,optical density (450 nm),"[1]; Table 1, serum YEMO, HIV-1 positive",0.000
same,optical density (450 nm),"[1]; Table 1, serum mm, HIV-1 positive",0.000
same,optical density (450 nm),"[1]; Table 8, serum 3990 (HIV-1), Avidin",0.054
same,optical density (450 nm),"[1]; Table 8, serum DV (HIV-1), Avidin",0.048
same,optical density (450 nm),"[1]; Table 8, serum PL (HIV-1), Avidin",0.051
same,optical density (450 nm),"[1]; Table 8, serum YS (HIV-1), Avidin",0.046
same,optical density (450 nm),"[2]; Table 1, serum 53-3, HIV-2 positive",2.365
same,optical density (450 nm),"[2]; Table 1, serum 1400, HIV-2 positive",1.982
same,optical density (450 nm),"[2]; Table 1, serum AG, HIV-2 positive",2.323
same,optical density (450 nm),"[2]; Table 8, serum 1400 (HIV-2), Avidin",1.781
same,optical density (450 nm),"[2]; Table 8, serum AG (HIV-2), Avidin",2.065
same,optical density (450 nm),[3]; serum 8243 (HCV),0.109
same,optical density (450 nm),[3]; serum 8247 (HCV),0.048
same,optical density (450 nm),[3]; serum 8248 (HCV),0.046
same,optical density (450 nm),[3]; serum 8269 (HCV),0.049
same,optical density (450 nm),[3]; serum 8273 (HCV),0.050
same,optical density (450 nm),[3]; serum 8278 (HCV),0.045
same,optical density (450 nm),[3]; serum 8285 (HCV),0.163
same,optical density (450 nm),[3]; serum 8290 (HCV),0.047
same,optical density (450 nm),[3]; serum 8291 (HCV),0.050
same,optical density (450 nm),"[4]; Table 1, serum 180, seronegative donor",0.000
same,optical density (450 nm),"[4]; Table 1, serum 194, seronegative donor",0.000
same,optical density (450 nm),"[4]; Table 1, serum 195, seronegative donor",0.000
same,optical density (450 nm),"[4]; Table 1, serum 204, seronegative donor",0.000
same,optical density (450 nm),"[4]; Table 8, serum 1782 (blood donor), Avidin",0.057
same,optical density (450 nm),"[4]; Table 8, serum 1784 (blood donor), Avidin",0.046
same,optical density (450 nm),"[4]; Table 8, serum 1785 (blood donor), Avidin",0.047
same,optical density (450 nm),"[4]; Table 8, serum 1794 (blood donor), Avidin",0.090
Bio Gly Gly Pro Pro Pro Pro Ser Ser Pro Thr His Asp Pro Pro Asp Ser Asp Pro Gln Ile Pro Pro Pro Tyr Val Glu Pro Thr Ala Pro Gln Val Leu (Biotin-GGPPPPSSPTHDPPDSDPQIPPPYVEPTAPQVL) [I-p19],LIA reaction,[5],positive reaction
